Results taken from ChEMBL document CHEMBL6074662, “Antibacterial, Antibiofilm, and Anti-inflammatory Effects of a Novel Thrombin-Derived Peptide in Sepsis Models: Insights into Underlying Mechanisms” (J Med Chem, 2024).

What was measured:
[1] = Hydrophobicity of compound assessed as retention time by RP-HPLC analysis; type: physicochemical
Escherichia coli [2] = assay: Antibacterial activity against Escherichia coli KCTC 1682 incubated for 24 hrs in presence of human serum by CLSI based broth microdilution method; type: functional
Staphylococcus aureus [3] = assay: Antibacterial activity against methicillin-resistant Staphylococcus aureus CCARM 3095 incubated for 24 hrs by CLSI based broth microdilution method; type: functional
Escherichia coli [4] = assay: Antibacterial activity against Escherichia coli KCTC 1682 incubated for 24 hrs by CLSI based broth microdilution method; type: functional
Pseudomonas aeruginosa [5] = assay: Antibacterial activity against Pseudomonas aeruginosa KCTC 1637 incubated for 24 hrs by CLSI based broth microdilution method; type: functional
Acinetobacter baumannii [6] = assay: Antibacterial activity against multidrug-resistant Acinetobacter baumannii 329-53 incubated for 24 hrs by CLSI based broth microdilution method; type: functional
Acinetobacter baumannii [7] = assay: Antibacterial activity against carbapenem-resistant Acinetobacter baumannii CCARM 12005 incubated for 24 hrs by CLSI based broth microdilution method; type: functional
Acinetobacter baumannii [8] = assay: Antibacterial activity against carbapenem-resistant Acinetobacter baumannii NMS 1707 incubated for 24 hrs by CLSI based broth microdilution method; type: functional
Acinetobacter baumannii [9] = assay: Antibacterial activity against carbapenem-resistant Acinetobacter baumannii NMS 1915 incubated for 24 hrs by CLSI based broth microdilution method; type: functional
Escherichia coli [10] = assay: Antibacterial activity against Escherichia coli KCTC 1682 incubated for 24 hrs in presence of KCl by CLSI based broth microdilution method; type: functional
Escherichia coli [11] = assay: Antibacterial activity against Escherichia coli KCTC 1682 incubated for 24 hrs in presence of NH4Cl by CLSI based broth microdilution method; type: functional
Escherichia coli [12] = assay: Antibacterial activity against Escherichia coli KCTC 1682 incubated for 24 hrs in presence of CaCl2 by CLSI based broth microdilution method; type: functional
[13] = Hemolytic activity in sheep RBC at 256 uM incubated for 1 hr by absorbance based assay; type: toxicity, cell-based, Ovis aries, Erythrocyte; details: sheep red blood cells, read-out: Activity
[14] = Effect on secondary structure of drug in PBS assessed as formation of random coil structure at 150 uM by CD analysis; type: physicochemical; details: buffer
[15] = Effect on secondary structure of drug in TFE assessed as fold increase in formation of alpha-helical conformation at 150 uM by CD analysis relative to HVF18; type: physicochemical
[16] = Effect on secondary structure of drug in LPS assessed as fold increase in formation of alpha-helical conformation at 150 uM by CD analysis relative to HVF18; type: physicochemical
Escherichia coli [17] = assay: Induction of cytoplasmic membrane depolarization in Escherichia coli KCTC 1682 at 0.5 times MIC measured for 500 secs by diSC3-5 dye based analysis relative to control; type: functional; details: time 500 sec; 0.1389 h
Escherichia coli [18] = assay: Induction of outer membrane permeabilization in Escherichia coli KCTC 1682 by NPN dye based analysis; type: functional, organism-based
Escherichia coli [19] = assay: Induction of inner membrane permeabilization in Escherichia coli KCTC 1682 at 0.5 times MIC by PI staining based flow cytometry (reference value: 1.51 %); type: functional
Pseudomonas aeruginosa [20] = assay: Inhibition of biofilm formation in multi-drug resistant Pseudomonas aeruginosa CCARM 2095 at 4 to 8 uM by crystal violet staining based analysis relative to control; type: functional; details: dose 4-8 µM
Staphylococcus aureus [21] = assay: Antibacterial activity against methicillin-resistant Staphylococcus aureus CCARM 3089 incubated for 24 hrs by broth microdilution method; type: functional
Staphylococcus aureus [22] = assay: Synergistic antibacterial activity against methicillin-resistant Staphylococcus aureus CCARM 3089 assessed as fractional inhibitory concentration index by measuring ratio of MIC of Chloramphenicol in presence of compound to MIC to Chloramphenicol incubated for 24 hrs by broth microdilution method; type: functional
Staphylococcus aureus [23] = assay: Synergistic antibacterial activity against methicillin-resistant Staphylococcus aureus CCARM 3089 incubated for 24 hrs in presence of Chloramphenicol by broth microdilution method; type: functional
Staphylococcus aureus [24] = assay: Synergistic antibacterial activity against methicillin-resistant Staphylococcus aureus CCARM 3089 assessed as fractional inhibitory concentration index by measuring ratio of MIC of Ciprofloxacin in presence of compound to MIC to Ciprofloxacin incubated for 24 hrs by broth microdilution method; type: functional
Staphylococcus aureus [25] = assay: Synergistic antibacterial activity against methicillin-resistant Staphylococcus aureus CCARM 3089 assessed as fractional inhibitory concentration index incubated for 24 hrs in presence of Ciprofloxacin by broth microdilution method; type: functional
Staphylococcus aureus [26] = assay: Synergistic antibacterial activity against methicillin-resistant Staphylococcus aureus CCARM 3089 assessed as MIC of Oxacillin incubated for 24 hrs by broth microdilution method; type: functional
Staphylococcus aureus [27] = assay: Synergistic antibacterial activity against methicillin-resistant Staphylococcus aureus CCARM 3089 assessed as fractional inhibitory concentration index by measuring ratio of MIC of Oxacillin in presence of compound to MIC to Oxacillin incubated for 24 hrs by broth microdilution method; type: functional
Pseudomonas aeruginosa [28] = assay: Synergistic antibacterial activity against multi-drug resistant Pseudomonas aeruginosa CCARM 2095 assessed as MIC of Chloramphenicol incubated for 24 hrs by broth microdilution method; type: functional
Pseudomonas aeruginosa [29] = assay: Synergistic antibacterial activity against multi-drug resistant Pseudomonas aeruginosa CCARM 2095 assessed as fractional inhibitory concentration index by measuring ratio of MIC of compound in presence of Chloramphenicol to MIC to compound incubated for 24 hrs by broth microdilution method; type: functional
Pseudomonas aeruginosa [30] = assay: Synergistic antibacterial activity against multi-drug resistant Pseudomonas aeruginosa CCARM 2095 assessed as fractional inhibitory concentration index incubated for 24 hrs in presence of Chloramphenicol by broth microdilution method; type: functional
Pseudomonas aeruginosa [31] = assay: Synergistic antibacterial activity against multi-drug resistant Pseudomonas aeruginosa CCARM 2095 assessed as MIC of Ciprofloxacin incubated for 24 hrs by broth microdilution method; type: functional
Pseudomonas aeruginosa [32] = assay: Synergistic antibacterial activity against multi-drug resistant Pseudomonas aeruginosa CCARM 2095 assessed as fractional inhibitory concentration index by measuring ratio of MIC of Ciprofloxacin in presence of compound to MIC to Ciprofloxacin incubated for 24 hrs by broth microdilution method; type: functional
Pseudomonas aeruginosa [33] = assay: Synergistic antibacterial activity against multi-drug resistant Pseudomonas aeruginosa CCARM 2095 assessed as fractional inhibitory concentration index incubated for 24 hrs in presence of Ciprofloxacin by broth microdilution method; type: functional
Pseudomonas aeruginosa [34] = assay: Synergistic antibacterial activity against multi-drug resistant Pseudomonas aeruginosa CCARM 2095 assessed as MIC of Oxacillin incubated for 24 hrs by broth microdilution method; type: functional
Pseudomonas aeruginosa [35] = assay: Synergistic antibacterial activity against multi-drug resistant Pseudomonas aeruginosa CCARM 2095 incubated for 24 hrs in presence of Oxacillin by broth microdilution method; type: functional
Pseudomonas aeruginosa [36] = assay: Synergistic antibacterial activity against multi-drug resistant Pseudomonas aeruginosa CCARM 2095 assessed as fractional inhibitory concentration index incubated for 24 hrs in presence of Oxacillin by broth microdilution method; type: functional
RAW264.7 [37] = assay: Anti-inflammatory activity in mouse RAW264.7 cells assessed as inhibition of LPS-induced NO production at 2.5 uM pretreated for 1 hr followed by LPS treatment for 16 hrs by Griess assay relative to control; type: functional; details: time 17 hrs
RAW264.7 [38] = assay: Anti-inflammatory activity in mouse RAW264.7 cells assessed as inhibition of LPS-induced NO production at 5 uM pretreated for 1 hr followed by LPS treatment for 16 hrs by Griess assay relative to control; type: functional; details: time 17 hrs

Row | Substance | Retention_time [1] [min] | MIC (Escherichia coli [2]) [µM] | MIC (Staphylococcus aureus [3]) [µM] | MIC (Escherichia coli [4]) [µM] | MIC (Pseudomonas aeruginosa [5]) [µM] | MIC (Acinetobacter baumannii [6]) [µM] | MIC (Acinetobacter baumannii [7]) [µM] | MIC (Acinetobacter baumannii [8]) [µM] | MIC (Acinetobacter baumannii [9]) [µM] | MIC (Escherichia coli [10]) [µM] | MIC (Escherichia coli [11]) [µM] | MIC (Escherichia coli [12]) [µM] | hemolysis at 1 h, 256 µM [13] [%] | Activity [14] | fold change (FC) [15] | fold change (FC) [16] | Activity (Escherichia coli [17]) [%] | Activity (Escherichia coli [18]) | Activity (Escherichia coli [19]) [%] | inhibition (INH) (Pseudomonas aeruginosa [20]) [%] | other results
1 | H-GVFRLKKWIKKVIKKWGK-NH2 | 20.06 | 32 | 8 | 16 | 8 | 4 | 4 | 4 | 2 | 32 | 16 | 32 | 8.9 | Active | ~ 5 | ~ 5 | ~50 | Dose-dependent-effect | ~100 | >50 | MIC (Staphylococcus aureus [21]): 8 µM; FIC (Staphylococcus aureus [22]): 0.25; MIC (Staphylococcus aureus [23]): 2 µM; FIC (Staphylococcus aureus [24]): 0.5; fractional inhibitory concentration index (FICI) (Staphylococcus aureus [25]): 0.75; MIC (Staphylococcus aureus [26]): 512 µM; FIC (Staphylococcus aureus [27]): 0.25; MIC (Pseudomonas aeruginosa [28]): 512 µM; FIC (Pseudomonas aeruginosa [29]): 0.25; fractional inhibitory concentration index (FICI) (Pseudomonas aeruginosa [30]): 0.375; MIC (Pseudomonas aeruginosa [31]): 128 µM; FIC (Pseudomonas aeruginosa [32]): 0.125; fractional inhibitory concentration index (FICI) (Pseudomonas aeruginosa [33]): 0.625; MIC (Pseudomonas aeruginosa [34]): 128 µM; MIC (Pseudomonas aeruginosa [35]): 2 µM; fractional inhibitory concentration index (FICI) (Pseudomonas aeruginosa [36]): 0.281; inhibition at 2.5 µM (RAW264.7 [37]): 80.7%; inhibition at 5 µM (RAW264.7 [38]): 89%
2 | H-GVFRLKKWLKKVKKWGK-NH2 | 21.66 | 32 | 8 | 16 | 8 | 4 | 4 | 4 | 4 | 16 | 16 | 16 | 9.1 | Active | ~ 5 | ~ 5 | ~50 | Dose-dependent-effect | ~100 | >50 | MIC (Staphylococcus aureus [21]): 8 µM; FIC (Staphylococcus aureus [22]): 0.5; MIC (Staphylococcus aureus [23]): 0.5 µM; FIC (Staphylococcus aureus [24]): 0.5; fractional inhibitory concentration index (FICI) (Staphylococcus aureus [25]): 1; MIC (Staphylococcus aureus [26]): 512 µM; FIC (Staphylococcus aureus [27]): 0.25; MIC (Pseudomonas aeruginosa [28]): 512 µM; FIC (Pseudomonas aeruginosa [29]): 0.25; fractional inhibitory concentration index (FICI) (Pseudomonas aeruginosa [30]): 0.375; MIC (Pseudomonas aeruginosa [31]): 256 µM; FIC (Pseudomonas aeruginosa [32]): 0.25; fractional inhibitory concentration index (FICI) (Pseudomonas aeruginosa [33]): 0.75; MIC (Pseudomonas aeruginosa [34]): 128 µM; MIC (Pseudomonas aeruginosa [35]): 2 µM; fractional inhibitory concentration index (FICI) (Pseudomonas aeruginosa [36]): 0.281; inhibition at 2.5 µM (RAW264.7 [37]): 80.3%; inhibition at 5 µM (RAW264.7 [38]): 91.6%
